Ki and IC50 data for six molecules are collected here from patent US6211196A, “Benzyloxy-substituted, fused N-heterocycles, processes for their preparation, and their use as bradykinin receptor antagonists” (Aventis Pharma Deutschland GmbH, priority 1997, dated 2001).

The target of one assay is T1, bradykinin β2 receptor (Cavia porcellus, UniProt O70526).
T1 construct: membrane preparations of the guinea-pig ileum; from tissue; host or cells: guinea-pig ileum membranes
T1 sequence (O70526 1-372): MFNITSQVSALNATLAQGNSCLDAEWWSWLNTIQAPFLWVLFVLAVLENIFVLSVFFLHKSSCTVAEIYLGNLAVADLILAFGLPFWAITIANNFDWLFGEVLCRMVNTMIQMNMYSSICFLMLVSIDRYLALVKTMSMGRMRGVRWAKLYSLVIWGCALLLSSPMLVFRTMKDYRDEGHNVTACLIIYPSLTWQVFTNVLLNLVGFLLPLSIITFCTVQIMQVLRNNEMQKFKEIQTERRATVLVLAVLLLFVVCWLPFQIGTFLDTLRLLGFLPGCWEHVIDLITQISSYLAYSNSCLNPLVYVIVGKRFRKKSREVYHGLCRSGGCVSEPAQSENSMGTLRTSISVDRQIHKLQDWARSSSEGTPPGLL
Kind of assay: Ki on membrane preparations of guinea-pig ileum, 3H-bradykinin competition. The class given is binding. To be noted: 3H-bradykinin 0.25 to 0.3 nmol/l, guinea-pig ileum membranes, room temperature, 60 minutes, pH 6.8. As to the method:
B. Innis et al., Proc. Natl. Acad. Sci. USA, 17 (1981) 2630) according to the following procedure: […] Ligand: ^3 H-BRADYKININ (from NEN Du Pont) Both buffers are adjusted to pH 6.8 using 5 molar NaOH. Guinea-pig ilea are grossly freed from intestinal contents by careful brushing and cleaned in 0.9% strength NaCl solution. The pieces of ilea about 2 cm long are transferred to ice-cold TES buffer (about 1 g/10 ml) and homogenized in an ice bath for about 30 sec. using an Ultraturrax. The homogenate is then filtered through three layers of gauze, and the filtrate is centrifuged at 50,000 g/10 minutes. The supernatant is discarded, and the pellet is rehomogenized in the same volume of TES buffer and centrifuged again at 50,000 g/10 minutes. The pellet is rehomogenized in incubation buffer (about 1 g/5 ml) and frozen at -70° C. in cryotubes in 2 ml portions. The protein concentration of the finished membrane suspension is determined according to LOWRY and should be about 15 μg/100 μl. All incubations are carried out at room temperature for 60 minutes on microtiter plates (96×300 μl) in a 200 μl volume. All mixtures are in incubation buffer. To this end, 50 μl of the radioligand, 50 μl of the preparation to be tested, and 100 μl of the membrane suspension are pipetted into the hollows of the microtiter plate in succession. Nonspecific binding: for each concentration of the radioactive ligand, the nonspecific binding must be determined. […] In this test, HOE 140 (10 μmol/l) is used. […] The reaction is started by the addition of 100 μl of the membrane suspension. Here a fixed quantity of the radioactive ligand (0.25 to 0.3 nmol/l of ^3 H-bradykinin) and various concentrations of the unlabeled agonists or antagonists are employed. 50 μl of the preparations or standard to be tested in the concentrations 10^-5 to 10^-10 mol/l are added to 50 μl in each case of the ^3 H-bradykinin solution, and the reaction is started by addition of 100 μl of membrane suspension. Triplicate determinations also are carried out in this test, and three samples are incubated with 10 μmol/l of HOE 140 to determine the nonspecific binding. The preparations to be tested for competition are completely dissolved in a concentration of 1 mmol/l in dimethyl sulfoxide (DMSO), and then further diluted with DMSO. This solution is then diluted 1:25 with incubation buffer. […] The still moist filters are punched out into mini-scintillation tubes, and these are filled with 3 ml of scintillator. After a soaking time of about 12 hours, the samples are briefly shaken and measured in a beta-counter. […] If a displacement of the radioligand of 50% or more is detectable at the highest concentration, a complete analysis (competition experiment) is carried out using at least 8 concentrations. Assessment is carried out by means of the LIGAND program package (McPherson, Minson & Rodbard, marketed by: Elsevier-BIOSOFT), which carries out the necessary calculations for the determination of IC50 and Ki values. This program moreover carries out graphic presentations of the saturation or displacement curves as well as the SCATCHARD plot, HILL plot, or HOFSTEE plot.

Assay [1] deals with bradykinin-induced contraction of the guinea-pig ileum. Kind of assay: bradykinin-induced contraction of the guinea-pig ileum. To be noted: isolated guinea-pig ileum, bradykinin 4×10^-8 mol/l, antagonist action time 10 min, 37° C. An excerpt: In addition, for the determination of the bradykinin-antagonistic action of the compounds of fomula (I), their effect on the bradykinin-induced contraction of the guinea-pig ileum can be measured according to the following protocol:
Guinea-pigs about 300 g in weight (Morioth strain, .male..female.) are killed by a blow to the neck and exsanguinated. The ileum is dissected out in a length of about 20 cm, rinsed with Tyrode solution (Record Syringe), and thus freed from the intestinal contents. It is then divided into sections 1.5 cm long. These are fixed in organ baths of 10 ml capacity, which are filled with Tyrode solution, and connected to extension-measuring strips (isometric contraction measurement). The preload is 1 g. The Tyrode solution is warmed to 37° C. in a water bath and bubbled through with compressed air. After an interval of 30 min, the experiment is begun. After recording the biological zero line, bradykinin in a final concentration of 4×10^-8 mol/l is added per organ bath, and the […] is recorded. Rinsing with Tyrode solution is then carried out for three min., and after a break of 20 min., bradykinin is again added. The maximum of the contraction is achieved (control). Rinse again, break. […] The experiment is recorded on a pen recorder.
Thus, the compounds of Examples 6 and 20, for example, have the following IC50 values determined by the above procedure: […]

By Ki is commonly meant a measure of affinity in units of concentration, obtained from inhibition or displacement. Low readings indicate tighter binding, high ones weaker binding. Take `CSc1ccc(N(C)C(=O)CNC(=O)/C=C/c2ccc(NC(C)=O)nc2)c(SC)c1COc1cccc2ccc(C)nc12` [Example 24, 8-[2,6-Dithiomethyl-3-(3-(6-acetylaminopyridin-3-yl)acryloylglycyl-N-methyl)aminobenzyloxy]-2-methylquinoline]: the affinity at bradykinin β2 receptor, expressed as Ki, was 1 nM. `COc1c(N(C)C(=O)CNC(=O)/C=C/c2ccc(C(F)(F)F)cc2)ccc(SC)c1COc1cccc2ccc(C)nc12` [Example 16] gave an inhibition constant (Ki) at bradykinin β2 receptor of 17.4 nM.

Regarding `CCNC(=O)NCC(=O)N(C)c1ccc(Cl)c(COc2cccc3ccc(C)nc23)c1C#N` [Example 1, 8-[6-Chloro-2-cyano-3-(N-ethylaminocarbonylglycyl-N-methyl)amino-benzyloxy]-2-methylquinoline], the affinity at bradykinin β2 receptor corresponds to a Ki of 8.3 nM. Still for that read-out and setting: to `CCNC(=O)NCC(=O)N(C)c1ccc(OC)c(COc2cccc3ccc(C)nc23)c1C#N` [Example 9, N-[2-Cyano-4-methoxy-3-(2-methylquinolin-8-yloxymethyl)phenyl]-2-(3-ethylureido)-N-methylacetamide] belongs 6 nM.

One may read the IC50 as the concentration at which inhibition is half-maximal. Turning to `COC(=O)CCCCC(=O)NCC(=O)N(C)c1ccc(OC)c(COc2cccc3ccc(C)nc23)c1SC` [Example 20, 8-[6-Methoxy-2-methylthio-3-(N-5-methoxycarbonylpentanoylglycyl-N-methyl)aminobenzyloxy]-2-methylquinoline], on bradykinin β2 receptor, the Ki was determined as 5.4 nM. Half-maximal inhibition in assay [1] (IC50) required 56 nM. As to `Cc1ccc2cccc(OCc3c(Cl)ccc(N(C)C(=O)CNC(=O)NCCCCN)c3C#N)c2n1` [Example 6, 8-[6-Chloro-2-cyano-3-[N-(4-aminobutylaminocarbonylglycyl-N-methyl]aminobenzyloxy]-2-methylquinoline bistrifluoroacetate], the Ki at bradykinin β2 receptor was found to be 0.1 nM. Moreover, the IC50 in assay [1] was 350 nM.
